Data published in PubChem BioAssay (NCI).
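Exposure lasted 48 hours, with cells grown in 96-well plates and compounds tested at five concentrations. The concentration for 50% growth inhibition is given as GI50. Definition used: TGI = concentration required for complete inhibition of growth.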

Columns and labels:
Assay in all cases: inhibition of tumour cell growth, NCI panel, 48 h
[1] = test system: HOP-92 NSCLC
[2] = test system: RXF 393 renal
[3] = test system: HS 578T breast
[4] = test system: U251 CNS
[5] = test system: HCT-15 colon
[6] = test system: SNB-75 CNS
[7] = test system: RPMI-8226 leukemia
[8] = test system: HCC-2998 colon
[9] = test system: NCI-H460 lung
[10] = test system: IGROV1 ovarian
[11] = test system: NCI-H522 lung
[12] = test system: MCF7 breast
[13] = test system: OVCAR-3 ovarian
[14] = test system: SF-539 CNS
[15] = test system: BT-549 breast
[16] = test system: MALME-3M melanoma
[17] = test system: TK-10 renal
[18] = test system: NCI/ADR-RES ovarian
[19] = test system: DU-145 prostate
[20] = test system: 786-0 renal
[21] = test system: SF-268 CNS
[22] = test system: UACC-257 melanoma
[23] = test system: SF-295 CNS
[24] = test system: A498 renal
[25] = test system: OVCAR-5 ovarian
[26] = test system: SK-MEL-5 melanoma
[27] = test system: HCT-116 colon
[28] = test system: HOP-62 NSCLC
[29] = test system: COLO 205 colon
[30] = test system: ACHN renal
[31] = test system: CCRF-CEM leukemia
[32] = test system: UACC-62 melanoma
[33] = test system: OVCAR-8 ovarian
[34] = test system: SK-MEL-28 melanoma
[35] = test system: SN12C renal
[36] = test system: UO-31 renal
[37] = test system: MDA-MB-231 breast
[38] = test system: K-562 leukemia
[39] = test system: A549 NSCLC
[40] = test system: KM12 colon
[41] = test system: M14 melanoma
[42] = test system: SK-MEL-2 melanoma
[43] = test system: SW-620 colon
[44] = test system: NCI-H23 lung
[45] = test system: SNB-19 CNS
[46] = test system: HL-60(TB) leukemia
[47] = test system: CAKI-1 renal
[48] = test system: LOX IMVI melanoma
[49] = test system: PC-3 prostate
[50] = test system: T-47D breast
[51] = test system: OVCAR-4 ovarian
[52] = test system: HT29 colon
[53] = test system: EKVX NSCLC
[54] = test system: SK-OV-3 ovarian
[55] = test system: NCI-H226 lung

SMILES: C=C(CN1CCN(c2ccc(Cl)cc2F)CC1)c1ccc(C(=O)Nc2ccccc2N)cc1
- GI50 [1]: 1.57 µM
- TGI [1]: > 27.4 µM
- GI50 [2]: 0.867 µM
- TGI [2]: 12.4 µM
- GI50 [3]: 3.38 µM
- TGI [3]: > 70.6 µM
- GI50 [4]: 1.8 µM
- TGI [4]: 21.5 µM
- GI50 [5]: 2.16 µM
- TGI [5]: > 100 µM
- GI50 [6]: 11.4 µM
- TGI [6]: > 46.1 µM
- GI50 [7]: 0.628 µM
- TGI [7]: 3.21 µM
- GI50 [8]: 3.84 µM
- TGI [8]: > 60.5 µM
- GI50 [9]: 3.23 µM
- TGI [9]: > 100 µM
- GI50 [10]: 1.16 µM
- TGI [10]: 14.8 µM
- GI50 [11]: 2.19 µM
- TGI [11]: 5.95 µM
- GI50 [12]: 3.08 µM
- TGI [12]: > 100 µM
- GI50 [13]: 2.29 µM
- TGI [13]: > 100 µM
- GI50 [14]: 2.02 µM
- TGI [14]: > 52.8 µM
- GI50 [15]: 2.99 µM
- TGI [15]: > 65.3 µM
- GI50 [16]: 1.92 µM
- TGI [16]: > 100 µM
- GI50 [17]: 3.53 µM
- TGI [17]: > 100 µM
- GI50 [18]: 1.97 µM
- TGI [18]: 5.5 µM
- GI50 [19]: 3.14 µM
- TGI [19]: > 100 µM
- GI50 [20]: 2.28 µM
- TGI [20]: > 100 µM
- GI50 [21]: 2.61 µM
- TGI [21]: > 100 µM
- GI50 [22]: 1.59 µM
- TGI [22]: 48.6 µM
- GI50 [23]: 3.16 µM
- TGI [23]: > 100 µM
- GI50 [24]: 3.03 µM
- TGI [24]: > 80.4 µM
- GI50 [25]: 51.7 µM
- TGI [25]: > 100 µM
- GI50 [26]: 2.3 µM
- TGI [26]: > 22.4 µM
- GI50 [27]: 1.85 µM
- TGI [27]: > 94.2 µM
- GI50 [28]: 3.42 µM
- TGI [28]: 27.8 µM
- GI50 [29]: 16.7 µM
- TGI [29]: > 95.3 µM
- GI50 [30]: 4.02 µM
- TGI [30]: > 100 µM
- GI50 [31]: 0.524 µM
- TGI [31]: > 100 µM
- GI50 [32]: 2.42 µM
- TGI [32]: > 92.1 µM
- GI50 [33]: 3.4 µM
- TGI [33]: > 100 µM
- GI50 [34]: > 26.8 µM
- TGI [34]: > 100 µM
- GI50 [35]: 1.87 µM
- TGI [35]: > 100 µM
- GI50 [36]: 1.1 µM
- TGI [36]: > 25.1 µM
- GI50 [37]: 0.536 µM
- TGI [37]: 3.64 µM
- GI50 [38]: 1.12 µM
- TGI [38]: > 100 µM
- GI50 [39]: 2.56 µM
- TGI [39]: > 30.5 µM
- GI50 [40]: 2.26 µM
- TGI [40]: > 59.7 µM
- GI50 [41]: 2.03 µM
- GI50 [42]: 6.95 µM
- TGI [42]: > 100 µM
- GI50 [43]: 3.06 µM
- TGI [43]: > 100 µM
- GI50 [44]: 3.13 µM
- TGI [44]: > 100 µM
- TGI [45]: > 34.3 µM
- GI50 [46]: 0.794 µM
- GI50 [47]: 2.72 µM
- TGI [47]: > 100 µM
- GI50 [48]: 3 µM
- TGI [48]: 8.43 µM
- GI50 [49]: 1.55 µM
- TGI [49]: > 100 µM
- TGI [50]: > 100 µM
- TGI [51]: > 66.6 µM
- GI50 [52]: 2.96 µM
- TGI [52]: > 100 µM
- GI50 [53]: 11.5 µM
- TGI [53]: > 100 µM
- TGI [54]: > 25.7 µM
- GI50 [55]: 3.29 µM
- TGI [55]: > 100 µM
